According to patent publication EP4678638A1, “NEW E3 UBIQUITIN LIGASE LIGAND, PROTEIN DEGRADATION AGENT AND USE THEREOF” (priority 2023, dated 2024):

How the values were obtained:
H2228 = assay: CCK-8 proliferation, NCI-H2228 (H2228); type: cell-based; conditions: Homo sapiens, NCI-H2228; CCK-8; 96 hours; read-out: Inhibitory activity (IC50) on tumor cell proliferation, H2228
In short: (§1)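 Tumor cells were cultured at 37°C with 5% CO2, seeded, and after 24h treated with compounds at 10 concentrations starting at 10µM (5-fold serial dilutions).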

PC-9 = assay: CCK-8 proliferation, PC-9; type: cell-based, Human; conditions: Homo sapiens, PC-9; CCK-8; 96 hours; read-out: Inhibitory activity (IC50) on tumor cell proliferation, PC-9
Method: (§2) The tumor cells used herein were cultured in a cell culture medium listed in table A1 at 37°C in an incubator with 5% CO2. Prior to experimentation, all cell lines used were correctly identified by STR profiling, and tested negative for mycoplasma contamination using a mycoplasma detection kit through routine screenings. Table A1. Tumor cells and cell culture medium used in the present disclosure
(§3) IC50 values of the compounds of the present disclosure (including the compounds in Table 1, and compounds of examples) were measured using the Meilun Cell Counting Kit-8 kit from Dalian Meilun Biotech Co., Ltd. Assay details are as follows: tumor cells were seeded in a 96-well plate at a density listed in Table A2. After 24h, 100 µL of the inoculated cells were treated with 0.5µL of the compounds of the present disclosure (including the compounds in Tables 1 and 2, and compounds of examples) at 10 different successively decreasing concentrations (starting at the highest concentration of 10µM; 5-fold serial dilutions). After the cells were treated with the compounds of the present disclosure for a period of time, the cell viability detection reagent was added to the culture medium for cell viability assessment according to the instructions provided with the CCK-8 kit. […] The growth inhibition of the compounds of the present disclosure on cells was plotted by Prism Graphpad software, and the IC50 values of the compounds of the present disclosure were calculated therefrom. […] Seeding protocol and treatment time for tumor cells

H1975 = assay: CCK-8 proliferation, NCI-H1975 (H1975); type: cell-based, Human; conditions: Homo sapiens, NCI-H1975; CCK-8; 96 hours; read-out: Inhibitory activity (IC50) on tumor cell proliferation, H1975
In short: as §1

CDK6 = target: T1, CDK6 (Homo sapiens, UniProt Q00534); assay: Western blot degradation of CDK6 (MDA-MB-231 Cell); type: cell-based; conditions: Table D3
T1 construct: evaluate the effects of the compounds of the present disclosure on the expression of target proteins in cells; endogenous in cells; host or cells: MDA-MB-231
Method: (§4) Conventional Western blot assay was performed to evaluate the effects of the compounds of the present disclosure on the expression of target proteins in cells.
(§5) (1) Cell Seeding and Protein Harvesting: The selected cells were processed according to the cell seeding procedure and protein harvesting procedure in Table III-2. Table III-2 Cell Seeding and Protein Harvesting Procedures
(§6) (2) To the collected supernatant, 5X SDS sample loading buffer was added, followed by denaturation at 95°C for 5 minutes. The denatured samples were then separated by SDS-PAGE electrophoresis on a polyacrylamide gel. Proteins were transferred to a nitrocellulose membrane (0.45 µm NC membrane), blocked with blocking buffer at room temperature for 1 hour, and subjected to antibody incubation and development procedures according to the antibody manufacturer's instructions (Cell Signaling Technology).
(§7) Half-Maximal Degradation Concentration value (the drug concentration required for degrading proteins by 50%, abbreviated as DC50) reads method: comparing the grayscale values of Western blot bands from drug-treated samples with those from blank DMSO-treated controls, and identifying the drug concentration range at which the grayscale value is half that of the DMSO-treated control bands.
(§8) DC50 values can be calculated using ImageJ software to measure grayscale values of Western blot bands from drug-treated samples. The concentration-response curve is fitted to estimate the drug concentration corresponding to half the grayscale value.
(§9) Target protein remaining (%) refers to the percentage of target protein remaining in hPBMC cells after treatment with protein degrader compounds.
(§10) Calculation method for target protein remaining (%): Use ImageJ software to measure grayscale values of Western blot bands from drug (protein degrader)-treated samples. The grayscale value of drug-treated bands is divided by that of internal control protein bands, and the resulting quotient is normalized to obtain the relative percentage of remaining target protein after protein degrader treatment.
(§11) Target protein degradation rate (%) = 100% - target protein remaining (%).

CDK4 = target: T2, CDK4 (Homo sapiens, UniProt P11802); assay: Western blot degradation of CDK4 (MDA-MB-231 Cell); type: cell-based; conditions: Table D3
T2 construct: evaluate the effects of the compounds of the present disclosure on the expression of target proteins in cells; endogenous in cells; host or cells: MDA-MB-231
Method: as §4, §5, §6, §7, §8, §9, §10, §11

CCRF-CEM = assay: CCK-8 proliferation, CCRF-CEM; type: cell-based, Human; conditions: Homo sapiens, CCRF-CEM; CCK-8; 96 hours; read-out: Inhibitory activity (IC50) on tumor cell proliferation, CCRF-CEM
Method: as §2, §3

MV-4-11 = assay: CCK-8 proliferation, MV-4-11; type: cell-based, Human; conditions: Homo sapiens, MV4-11; CCK-8; 72 or 96 hours; read-out: Inhibitory activity (IC50) on tumor cell proliferation, MV-4-11
Method: as §2, §3

T1 sequence (Q00534 whole entry): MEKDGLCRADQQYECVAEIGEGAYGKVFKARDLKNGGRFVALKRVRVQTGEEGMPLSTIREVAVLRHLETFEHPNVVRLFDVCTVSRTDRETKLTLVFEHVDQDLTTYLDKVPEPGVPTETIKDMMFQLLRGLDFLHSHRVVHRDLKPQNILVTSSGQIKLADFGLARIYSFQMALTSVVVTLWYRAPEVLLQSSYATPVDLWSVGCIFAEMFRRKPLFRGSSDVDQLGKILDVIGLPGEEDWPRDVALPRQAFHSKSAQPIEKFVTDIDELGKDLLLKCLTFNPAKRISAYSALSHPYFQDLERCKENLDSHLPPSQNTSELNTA
T2 sequence (P11802 whole entry): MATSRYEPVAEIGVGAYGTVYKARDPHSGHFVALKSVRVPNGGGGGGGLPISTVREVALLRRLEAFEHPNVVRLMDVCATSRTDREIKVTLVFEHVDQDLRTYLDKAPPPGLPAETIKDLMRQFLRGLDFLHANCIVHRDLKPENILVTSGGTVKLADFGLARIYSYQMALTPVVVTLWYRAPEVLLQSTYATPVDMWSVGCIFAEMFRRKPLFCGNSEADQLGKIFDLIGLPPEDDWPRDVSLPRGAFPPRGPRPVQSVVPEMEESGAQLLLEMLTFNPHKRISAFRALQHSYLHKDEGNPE

IC50 (H2228) [nM] | IC50 (PC-9) [nM] | IC50 (H1975) [nM] | Structure (SMILES) | Degradation of substrate protein CDK6 (substrate protein remaining %) (CDK6) | Degradation of substrate protein CDK4 (substrate protein remaining %) (CDK4) | other results
100 to 500 | 500 to 1000 | 500 to 1000 | NC(=O)c1ncc(N2CCCCC2)nc1Nc1ccc(C2CCN(Cc3ccc(C4CCC(=O)NC4=O)c(F)c3)CC2)cc1 (stereo not drawn) [GT-04786, 3-((4-(1-(4-(2,6-dioxopiperidin-3-yl)-3-fluorobenzyl)piperidin-4-yl)phenyl)amino)-5-(piperidin-1-yl)pyrazine-2-carboxamide] | – | – | –
100 to 500 | 100 to 500 | 500 to 1000 | NC(=O)c1ncc(N2CCCCC2)nc1Nc1ccc(C2CCN(Cc3ccc(N4CCC(=O)NC4=O)c(F)c3)CC2)cc1 [GT-04788, 3-((4-(1-(4-(2,4-dioxotetrahydropyrimidin-1(2H)-yl)-3-fluorobenzyl)piperidin-4-yl)phenyl)amino)-5-(piperidin-1-yl)pyrazine-2-carboxamide] | – | – | –
100 to 500 | 100 to 500 | 500 to 1000 | NC(=O)c1ncc(N2CCCCC2)nc1Nc1ccc(C2CCN(Cc3ccc(N4CCC(=O)NC4=O)cc3)CC2)cc1 [GT-04789, 3-((4-(1-(4-(2,4-dioxotetrahydropyrimidin-1(2H)-yl)benzyl)piperidin-4-yl)phenyl)amino)-5-(piperidin-1-yl)pyrazine-2-carboxamide] | – | – | –
500 to 1000 | 100 to 500 | 500 to 1000 | CN1CCN([C@@H]2CCCN(c3cnc(C(N)=O)c(Nc4ccc(C5CCN(Cc6ccc(C7CCC(=O)NC7=O)cc6)CC5)cc4)n3)C2)C1=O (stereo partly drawn) [GT-04798, 3-((4-(1-(4-(2,6-dioxopiperidin-3-yl)benzyl)piperidin-4-yl)phenyl)amino)-5-((R)-3-(3-methyl-2-oxoimidazolidin-1-yl)piperidin-1-yl)pyrazine-2-carboxamide] | – | – | –
500 to 1000 | 500 to 1000 | – | CN1CCN([C@@H]2CCCN(c3cnc(C(N)=O)c(Nc4ccc(C5CCN(Cc6ccc(C7CCC(=O)NC7=O)c(F)c6)CC5)cc4)n3)C2)C1=O (stereo partly drawn) [GT-04799, 3-((4-(1-(4-(2,6-dioxopiperidin-3-yl)-3-fluorobenzyl)piperidin-4-yl)phenyl)amino)-5-((R)-3-(3-methyl-2-oxoimidazolidin-1-yl)piperidin-1-yl)pyrazine-2-carboxamide] | – | – | –
100 to 500 | 100 to 500 | 500 to 1000 | CN1CCN([C@@H]2CCCN(c3cnc(C(N)=O)c(Nc4ccc(C5CCN(Cc6ccc(N7CCC(=O)NC7=O)c(F)c6)CC5)cc4)n3)C2)C1=O [GT-04801, (R)-3-((4-(1-(4-(2,4-dioxotetrahydropyrimidin-1(2H)-yl)-3-fluorobenzyl)piperidin-4-yl)phenyl)amino)-5-(3-(3-methyl-2-oxoimidazolidin-1-yl)piperidin-1-yl)pyrazine-2-carboxamide] | – | – | –
– | – | – | CN(C)C(=O)c1cc2cnc(Nc3ccc(N4CCN(Cc5ccc(C6CCC(=O)NC6=O)cc5)CC4)cn3)nc2n1C1CCCC1 (stereo not drawn) [GT-06339, 7-cyclopentyl-2-((5-(4-(4-(2,6-dioxopiperidin-3-yl)benzyl)piperazin-1-yl)pyridin-2-yl)amino)-N,N-dimethyl-7H-pyrrolo[2,3-d]pyrimidine-6-carboxamide] | A (A is defined as 0% ≤ substrate protein remaining % ≤ 80%) | A (A is defined as 0% ≤ substrate protein remaining % ≤ 80%) | –
– | – | – | CN(C)C(=O)c1cc2cnc(Nc3ccc(N4CCN(Cc5ccc(N6CCC(=O)NC6=O)cc5)CC4)cn3)nc2n1C1CCCC1 [GT-06340, 7-cyclopentyl-2-((5-(4-(4-(2,4-dioxotetrahydropyrimidin-1(2H)-yl)benzyl)piperazin-1-yl)pyridin-2-yl)amino)-N,N-dimethyl-7H-pyrrolo[2,3-d]pyrimidine-6-carboxamide] | A (A is defined as 0% ≤ substrate protein remaining % ≤ 80%) | A (A is defined as 0% ≤ substrate protein remaining % ≤ 80%) | –
– | – | – | CN(C)C(=O)c1cc2cnc(Nc3ccc(N4CCN(Cc5cccc(N6CCC(=O)NC6=O)c5)CC4)cn3)nc2n1C1CCCC1 [GT-06341, 7-cyclopentyl-2-((5-(4-(3-(2,4-dioxotetrahydropyrimidin-1(2H)-yl)benzyl)piperazin-1-yl)pyridin-2-yl)amino)-N,N-dimethyl-7H-pyrrolo[2,3-d]pyrimidine-6-carboxamide] | A (A is defined as 0% ≤ substrate protein remaining % ≤ 80%) | A (A is defined as 0% ≤ substrate protein remaining % ≤ 80%) | –
– | – | – | CN(C)C(=O)c1cc2cnc(Nc3ccc(N4CCN(Cc5ccc(N6CCC(=O)NC6=O)cn5)CC4)cn3)nc2n1C1CCCC1 [GT-06342, 7-cyclopentyl-2-((5-(4-((5-(2,4-dioxotetrahydropyrimidin-1(2H)-yl)pyridin-2-yl)methyl)piperazin-1-yl)pyridin-2-yl)amino)-N,N-dimethyl-7H-pyrrolo[2,3-d]pyrimidine-6-carboxamide] | A (A is defined as 0% ≤ substrate protein remaining % ≤ 80%) | A (A is defined as 0% ≤ substrate protein remaining % ≤ 80%) | –
– | – | – | CN(C)C(=O)c1cc2cnc(Nc3ccc(N4CCN(Cc5ccc(N6CCC(=O)NC6=O)nc5)CC4)cn3)nc2n1C1CCCC1 [GT-06343, 7-cyclopentyl-2-((5-(4-((6-(2,4-dioxotetrahydropyrimidin-1(2H)-yl)pyridin-3-yl)methyl)piperazin-1-yl)pyridin-2-yl)amino)-N,N-dimethyl-7H-pyrrolo[2,3-d]pyrimidine-6-carboxamide] | A (A is defined as 0% ≤ substrate protein remaining % ≤ 80%) | A (A is defined as 0% ≤ substrate protein remaining % ≤ 80%) | –
– | – | – | CN(C)C(=O)c1cc2cnc(Nc3ccc(N4CCN(Cc5cccc(NC6CCC(=O)NC6=O)c5)CC4)cn3)nc2n1C1CCCC1 (stereo not drawn) [GT-06344, 7-cyclopentyl-2-((5-(4-(3-((2,6-dioxopiperidin-3-yl)amino)benzyl)piperazin-1-yl)pyridin-2-yl)amino)-N,N-dimethyl-7H-pyrrolo[2,3-d]pyrimidine-6-carboxamide] | A (A is defined as 0% ≤ substrate protein remaining % ≤ 80%) | B (B is defined as substrate protein remaining % > 80%) | –
– | – | – | Nc1nc(Nc2ccc(S(=O)(=O)N3CCN(Cc4ccc(N5CCC(=O)NC5=O)cc4)CC3)cc2)nn1C(=O)c1c(F)cccc1F [GT-06751, 1-(4-((4-((4-((5-amino-1-(2,6-difluorobenzoyl)-1H-1,2,4-triazol-3-yl)amino)phenyl)sulfonyl)piperazin-1-yl)methyl)phenyl)dihydropyrimidine-2,4(1H,3H)-dione] | – | – | IC50 (CCRF-CEM): 500 to 1000 nM; IC50 (MV-4-11): 500 to 1000 nM
– | – | – | Nc1nc(Nc2ccc(S(=O)(=O)N3CCN(Cc4ccc(N5CCC(=O)NC5=O)nc4)CC3)cc2)nn1C(=O)c1c(F)cccc1F [GT-06754, 1-(5-((4-((4-((5-amino-1-(2,6-difluorobenzoyl)-1H-1,2,4-triazol-3-yl)amino)phenyl)sulfonyl)piperazin-1-yl)methyl)pyridin-2-yl)dihydropyrimidine-2,4(1H,3H)-dione] | – | – | IC50 (CCRF-CEM): 500 to 1000 nM; IC50 (MV-4-11): 500 to 1000 nM
